Test [1] relates to NFκB p65 cytoplasm-to-nucleus translocation in HUVEC cells. In words: TNFα-induced NFκB cytoplasm-nucleus translocation in HUVEC (FLIN). Format: cell-based, human. On the procedure: The cells used in these studies were primary human umbilical vein endothelial cells (HUVEC) obtained from Clonetics Corporation. The cells were maintained in culture under standard conditions and passaged using Clonetics' proprietary EGM medium and reagent system. Since they are not transformed, HUVECs, generally become senescent after nine or ten passages.
Prior to assay, cells were transferred to 96-well plates (Packard black ViewPlate) and incubated overnight to yield cell monolayers that were approximately 25% confluent. Plates used to determine a statistically optimal cell density for the assay were made by seeding wells at 5000, 2500, and 1000 cells per well and incubating overnight. […] Translocation of NFκB from the cytoplasm to the nucleus was assessed by visual examination of sample wells with a confocal microscope system. […]
Fractional Localized Intensity Measurements on TNFα-induced NFκB Cytoplasm-Nucleus Translocation: Immunofluorescent staining of the NFκB p65 regulatory subunit allows for easy characterization of the intercellular NFκB distribution by visual inspection of images acquired during scanning. The majority of fluorescence lies outside the nuclear area in unstimulated cells, while a substantial amount co-locates with the nuclear mask subsequent to maximal stimulation with TNFα (FIG. 11). […]

Test [2] shares this test system. The settings on record: previous reports [Ding et al.]; cited from earlier work.

Here are results for one substance from patent US20130004053A1, “System and method for automatic color segmentation and minimum significant response for measurement of fractional localized intensity of cellular compartments” (Vala Sciences, Inc., priority 2002, published 2013).

In the case of tumor necrosis factor α [TNFα], the “translocation of labeled NFκB, average” value in test [1] (200 U/ml TNFα, 15 m, average over cellular densities) came out at 18.80%. In addition, the “gross p65 translocated upon maximal stimulation” value in test [1] (maximal stimulation) is given as “≈ 20%”. For the same substance, the “fraction of p65 to translocate on stimulus, of gross amount in unstimulated cell cytoplasm” value in test [2] is 20%.
